#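 48-hour exposure; five concentrations; linearly interpolated endpoints. GI50 = concentration required for 50% inhibition of growth.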 Active and inactive are the calls of the source. Cut-off read from the data, not from the text of the source: active = GI50 up to about 1.1 µM and inactive = higher. Where a SMILES comes first, the peptide text is derived from it. [ ]: non-standard residue; d: D form. The star is where a group is joined. Phe(4-NO2) = N[CH](Cc1ccc([N+](=O)[O-])cc1)C(=O)O; Boc = CC(C)(C)OC(=O)*; OBn = c1ccc(CO*)cc1
# What was measured:
# Experiment in all cases: DTP human tumour cell line panel, 48 h
# [1] = system: NCI-H23
# [2] = system: Malme-3M
# [3] = system: SK-MEL-28
# [4] = system: SF-539
# [5] = system: OVCAR-3
# [6] = system: MCF7
# [7] = system: OVCAR-8
# [8] = system: NCI/ADR-RES
# [9] = system: SW-620
# [10] = system: MDA-MB-435
# [11] = system: HCT-116
# [12] = system: T47D
# [13] = system: K562
# [14] = system: HCC 2998
# [15] = system: SN12C
# [16] = system: SNB-75
# [17] = system: LOX IMVI
# [18] = system: 786-0
# [19] = system: SR
# [20] = system: KM-20L2
Compound,GI50 [1],GI50 [2],GI50 [3],GI50 [4],GI50 [5],GI50 [6],GI50 [7],GI50 [8],GI50 [9],GI50 [10],GI50 [11],GI50 [12],GI50 [13],GI50 [14],GI50 [15],GI50 [16],GI50 [17],GI50 [18],GI50 [19],GI50 [20]
Cc1ccc([N+](=O)[O-])cc1S(=O)(=O)Nc1ccc(C(=O)/C=C/c2cccs2)cc1,20.2 µM (inactive),27.4 µM (inactive),23.1 µM (inactive),27.2 µM (inactive),20.8 µM (inactive),15.7 µM (inactive),37.4 µM (inactive),24.9 µM (inactive),22.4 µM (inactive),17.6 µM (inactive),18.2 µM (inactive),25.6 µM (inactive),29 µM (inactive),18.5 µM (inactive),24.2 µM (inactive),19.3 µM (inactive),20.7 µM (inactive),18.4 µM (inactive),18.9 µM (inactive),
CC(C)C/N=C(\N)N=C(N)N,> 100 µM (inactive),> 100 µM (inactive),> 100 µM (inactive),> 100 µM (inactive),> 100 µM (inactive),> 100 µM (inactive),> 100 µM (inactive),> 100 µM (inactive),> 100 µM (inactive),> 100 µM (inactive),> 100 µM (inactive),> 100 µM (inactive),> 100 µM (inactive),> 100 µM (inactive),> 100 µM (inactive),> 100 µM (inactive),> 100 µM (inactive),> 100 µM (inactive),> 100 µM (inactive),
COc1cc(C2SCC(=O)N2c2ccc(Cl)c(Cl)c2)cc(OC)c1OC (stereo not drawn),69.5 µM (inactive),> 100 µM (inactive),> 50.9 µM (inactive),70.5 µM (inactive),34.1 µM (inactive),38.2 µM (inactive),60.5 µM (inactive),37.2 µM (inactive),48 µM (inactive),11.1 µM (inactive),25.5 µM (inactive),10.6 µM (inactive),1.28 µM (inactive),> 56.9 µM (inactive),> 54.5 µM (inactive),76.6 µM (inactive),17.7 µM (inactive),> 55.6 µM (inactive),9.75 µM (inactive),
NC(=O)SCC(=O)Nc1ccc2cccc3c2c1CC3,23.7 µM (inactive),> 100 µM (inactive),> 10 µM (inactive),15.1 µM (inactive),31.6 µM (inactive),11 µM (inactive),63.4 µM (inactive),42.6 µM (inactive),12.2 µM (inactive),17.4 µM (inactive),15.5 µM (inactive),21.9 µM (inactive),12.8 µM (inactive),62.1 µM (inactive),21.5 µM (inactive),96.6 µM (inactive),6.75 µM (inactive),18.9 µM (inactive),8.71 µM (inactive),
CC1C=C(CCCCCCCCCCCC[C@@H](O)[C@@H]2CC[C@@H]([C@@H]3CC[C@@H](C(O)CCCCCCCCCCCCC4=C[C@H](C)OC4=O)O3)O2)C(=O)O1 (stereo partly drawn),< 0.0422 µM (active),> 91.2 µM (inactive),> 100 µM (inactive),3.23 µM (inactive),23 µM (inactive),,25.5 µM (inactive),,> 57.3 µM (inactive),,,,0.993 µM (active),> 100 µM (inactive),> 100 µM (inactive),> 80 µM (inactive),12.2 µM (inactive),> 100 µM (inactive),,> 95.5 µM (inactive)
COc1ccc(-c2nc3ccc(C)cc3o2)c(OC)c1,27.8 µM (inactive),21.2 µM (inactive),55.7 µM (inactive),20 µM (inactive),15.7 µM (inactive),30 µM (inactive),26.4 µM (inactive),29.4 µM (inactive),29.3 µM (inactive),21.6 µM (inactive),17.9 µM (inactive),30.1 µM (inactive),22.1 µM (inactive),14.9 µM (inactive),26.5 µM (inactive),16.7 µM (inactive),16.6 µM (inactive),21.4 µM (inactive),14.3 µM (inactive),
COC(=O)CCC(NC(=O)OC(C)(C)C)C(=O)NC(Cc1ccc([N+](=O)[O-])cc1)C(=O)NCC(=O)OCc1ccccc1 (stereo not drawn) (Boc-Glu(OMe)-[Phe(4-NO2)]-Gly-OBn; configuration not given here),> 78.9 µM (inactive),> 100 µM (inactive),> 100 µM (inactive),28.4 µM (inactive),> 100 µM (inactive),> 100 µM (inactive),46.7 µM (inactive),> 80.7 µM (inactive),> 100 µM (inactive),> 100 µM (inactive),> 100 µM (inactive),> 100 µM (inactive),> 100 µM (inactive),99.8 µM (inactive),> 100 µM (inactive),18.6 µM (inactive),> 48.2 µM (inactive),45.5 µM (inactive),> 53.8 µM (inactive),

# — ChEMBL document CHEMBL1201862, “PubChem BioAssay data set” (2004)
